Results from patent US20010039287A1, “AROMATIC SULFONE HYDROXAMIC ACID METALLOPROTEASE INHIBITOR” (priority 1997, published 2001).
Structures can show the parent of a compound that is named as a salt. Where two headings read alike, the source gives them in different places.

Experiments:
Test in all cases: biochemical
recombinant human MMP-13 = recombinant human MMP-13 (Homo sapiens, UniProt P45452); conditions: read-out: MMP-13 IC50
recombinant human MMP-1 = target: T1, recombinant human MMP-1 (Homo sapiens, UniProt P03956); conditions: read-out: MMP-1 IC50
T1 construct: made in house; host or cells: transfected HT-1080 cells (provided by Dr. Harold Welgus, Washington University)
T1 sequence (P03956 100-469): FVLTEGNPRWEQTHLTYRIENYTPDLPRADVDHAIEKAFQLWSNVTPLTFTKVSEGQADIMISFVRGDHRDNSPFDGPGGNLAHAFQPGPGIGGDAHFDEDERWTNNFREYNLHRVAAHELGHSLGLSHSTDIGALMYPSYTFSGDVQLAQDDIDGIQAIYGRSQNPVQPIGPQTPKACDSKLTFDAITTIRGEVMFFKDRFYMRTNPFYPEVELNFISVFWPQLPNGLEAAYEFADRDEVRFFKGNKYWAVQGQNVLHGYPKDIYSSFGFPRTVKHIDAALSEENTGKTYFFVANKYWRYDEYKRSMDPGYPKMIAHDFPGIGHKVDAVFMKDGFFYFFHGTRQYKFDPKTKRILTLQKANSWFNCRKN

recombinant human MMP-2 = target: T2, recombinant human MMP-2 (Homo sapiens, UniProt P08253); conditions: read-out: MMP-2 IC50
T2 sequence (P08253 110-660): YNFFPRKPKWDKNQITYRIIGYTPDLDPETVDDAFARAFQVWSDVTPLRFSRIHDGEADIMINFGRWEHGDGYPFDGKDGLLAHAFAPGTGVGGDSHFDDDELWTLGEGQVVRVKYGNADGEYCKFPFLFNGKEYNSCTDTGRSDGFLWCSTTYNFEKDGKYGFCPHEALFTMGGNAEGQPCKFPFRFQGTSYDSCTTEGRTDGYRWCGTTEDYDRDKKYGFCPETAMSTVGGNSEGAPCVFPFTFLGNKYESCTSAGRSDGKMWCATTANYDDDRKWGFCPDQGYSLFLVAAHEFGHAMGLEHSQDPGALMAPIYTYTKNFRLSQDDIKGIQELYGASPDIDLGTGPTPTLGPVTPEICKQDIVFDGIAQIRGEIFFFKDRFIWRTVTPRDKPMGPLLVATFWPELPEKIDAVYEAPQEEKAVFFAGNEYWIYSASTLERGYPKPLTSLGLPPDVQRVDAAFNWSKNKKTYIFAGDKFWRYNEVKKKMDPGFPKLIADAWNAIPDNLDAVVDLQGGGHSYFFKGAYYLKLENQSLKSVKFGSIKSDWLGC

recombinant human MMP-9 = recombinant human MMP-9 (Homo sapiens, UniProt P14780); conditions: read-out: MMP-9 IC50
recombinant human MMP-9, sequence (P14780 107-707 limits assumed): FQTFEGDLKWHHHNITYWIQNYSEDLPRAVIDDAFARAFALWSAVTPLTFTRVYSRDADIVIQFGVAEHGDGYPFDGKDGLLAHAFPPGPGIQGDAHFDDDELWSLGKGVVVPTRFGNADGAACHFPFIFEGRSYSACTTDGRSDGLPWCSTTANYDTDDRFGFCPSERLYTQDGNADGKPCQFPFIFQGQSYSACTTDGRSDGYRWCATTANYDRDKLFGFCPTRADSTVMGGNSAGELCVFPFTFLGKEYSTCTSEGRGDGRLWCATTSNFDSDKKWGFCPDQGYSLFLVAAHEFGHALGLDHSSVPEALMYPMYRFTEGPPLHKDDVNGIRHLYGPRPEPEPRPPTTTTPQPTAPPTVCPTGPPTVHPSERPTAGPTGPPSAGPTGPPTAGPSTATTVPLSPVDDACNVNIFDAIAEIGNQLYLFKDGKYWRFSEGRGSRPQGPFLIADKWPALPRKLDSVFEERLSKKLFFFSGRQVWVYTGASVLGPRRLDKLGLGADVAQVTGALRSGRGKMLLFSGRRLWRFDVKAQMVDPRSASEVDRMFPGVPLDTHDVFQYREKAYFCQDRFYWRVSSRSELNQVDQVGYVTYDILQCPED

Structure (SMILES)	IC50 (recombinant human MMP-13; Inhibition Table A) [nM]	IC50 (recombinant human MMP-1; Inhibition Table A) [nM]	IC50 (recombinant human MMP-2; Inhibition Table A) [nM]	IC50 (recombinant human MMP-9; Inhibition Table A) [nM]	IC50 (recombinant human MMP-13; Inhibition Table B) [nM]	IC50 (recombinant human MMP-1; Inhibition Table B) [nM]	IC50 (recombinant human MMP-2; Inhibition Table B) [nM]	IC50 (recombinant human MMP-9; Inhibition Table B) [nM]
O=C(CS(=O)(=O)c1ccc(Oc2ccccc2)cc1)NO [Example 1]	5.1	6600	2.6	31.6				
CC(C)(C(=O)NO)S(=O)(=O)c1ccc(Oc2ccccc2)cc1 [Example 2]	0.25	220	0.1	1.4				
CCCCOC1CCN(c2ccc(S(=O)(=O)C3(C(=O)NO)CCOCC3)cc2)CC1 [Example 16]	2.4	> 10000	100	2500				
C#CCN1CCC(C(=O)NO)(S(=O)(=O)c2ccc(Sc3ccc(F)cc3)cc2)CC1 [Example 24]	0.4	> 10000	1	3.7				
O=C(NO)C1(S(=O)(=O)c2ccc(Oc3ccc(-n4cncn4)cc3)cc2)CCOCC1 [Example 26]	0.5	7700	0.2	7				
COCCN1CCC(C(=O)NO)(S(=O)(=O)c2ccc(Oc3ccccc3)cc2)CC1 [Example 30]					0.1	350	0.1	0.3
C#CCN1CCC(C(=O)NO)(S(=O)(=O)c2ccc(Oc3ccc(OC)c(OC)c3)cc2)CC1 [Example 38, 4-[[4-(3,4-dimethoxyphenoxy)phenyl]sulfonyl]-N-hydroxy-1-(2-propynyl)-4-piperidinecarboxamide, Monohydrochloride]					22	> 10000	20	135
CS(=O)(=O)N1CCC(C(=O)NO)(S(=O)(=O)c2ccc(Oc3ccc4c(c3)OCO4)cc2)CC1 [Example 42, 4-[[4-(1,3-benzodioxol-5-yloxy)phenyl]sulfonyl]-N-hydroxy-1-(methylsulfonyl)-4-piperidinecarboxamide]					0.4	2200	0.2	1.3
O=C(NO)C1(S(=O)(=O)c2ccc(N3CCC(Oc4ccc5c(c4)OCO5)CC3)cc2)CCOCC1 [Example 63, 4-[[4-[4-(1,3-Benzodioxol-5-yloxy)-1-piperidinyl]phenyl]sulfonyl]-tetrahydro-N-hydroxy-2H-pyran-4-carboxamide, Monohydrochloride]					1.5	> 10000	18.1	530
COc1ccc(Sc2ccc(S(=O)(=O)C3(C(=O)NO)CCOCC3)cc2)cc1 [Example 65, Tetrahydro-N-hydroxy-4-[[4-(4-methoxyphenylthio)phenyl]-sulfonyl]-2H-pyran-4-carboxamide]					0.7	8000	0.6	4.4
O=C(NO)C1(S(=O)(=O)c2ccc(NCc3ccccc3)cc2)CCOCC1 [Example 68, tetrahydro-N-hydroxy-4-[[4-[(4-phenylmethyl)amino]phenyl]-sulfonyl]-2H-pyran-4-carboxamide, Monohydrochloride]					6	> 10000	5.3	130
O=C(NO)C1(S(=O)(=O)c2ccc(Oc3cc(F)cc(F)c3)cc2)CCOCC1 [Example 70, 4-[[4-(3,5-difluorophenoxy)phenyl]sulfonyl]tetrahydro-N-hydroxy-2H-pyran-4-carboxamide]					0.8	1500	0.2	7.3
Cc1ccc(Oc2ccc(S(=O)(=O)C3(C(=O)NO)CN(C)CN(C)C3)cc2)cc1C [Example 78, 5-[4-(3,4-dimethylphenoxy)phenyl]sulfonyl-N^5-hydroxy-1,3-dimethylhexahydro-5-pyrimidinecarboxamide, Dihydrochloride]					10	> 10000	6	50
Cc1cc(Oc2ccc(S(=O)(=O)C3(C(=O)NO)CCN(CC(=O)O)CC3)cc2)ccc1Cl [Example 80, 4-[[4-(4-chloro-3-methylphenoxy)phenyl]sulfonyl]-4-(hydroxyamino)carbonyl]-1-piperidineacetic Acid, Monohydrochloride]					0.2	3000	0.1	1.8
Cc1cc(Oc2ccc(S(=O)(=O)C3(C(=O)NO)CCNCC3)cc2)ccc1F [Example 83, 4-[[4-(4-fluoro-3-methylphenoxy)phenyl]sulfonyl]-N-hydroxy-4-piperidine Carboxamide, Monohydrochloride]					1.5	8000	1.2	5
C#CCN1CCC(C(=O)NO)(S(=O)(=O)c2ccc(Oc3ccc(Cl)cc3)cc2)CC1 [Example 85, 4-[[4-(4-chlorophenoxy)-phenyl]sulfonyl]-N-hydroxy-1-(2-propynyl)-4-piperidinecarboxamide, Monohydrochloride]					< 0.1	500	< 0.1	0.4
O=C(O)CN1CCC(C(=O)NO)(S(=O)(=O)c2ccc(Sc3ccccc3)cc2)CC1 [Example 87, 4-[(hydroxyamino)-carbonyl]-4-[[4-(phenylthio)phenyl]-sulfonyl]-1-piperidineacetic Acid, Monohydrochloride]					0.35	7200	0.8	13.9
O=C(O)CN1CCC(C(=O)NO)(S(=O)(=O)c2ccc(Oc3ccc(Cl)cc3)cc2)CC1 [Example 88, 4-[[4-(4-chlorophenoxy)-phenyl]sulfonyl]-4-[(hydroxyamino)-carbonyl]-1-piperidineacetic Acid, Monohydrochloride]					0.2	1100	0.2	0.5
O=C(NO)C1(S(=O)(=O)c2ccc(Oc3ccc(Cl)cc3)cc2)CCN(CCN2CCOCC2)CC1 [Example 89, 4-[[4-(4-chlorophenoxy)-phenyl]sulfonyl]-N-hydroxy-1-[2-(4-morpholinyl)ethyl]-4-piperidine-carboxamide, Dihydrochloride]					0.25	1200	0.15	0.4
O=C(NO)C1(S(=O)(=O)c2ccc(-c3ccc(Cl)cc3)cc2)CCNCC1 [Example 91, 4-[(4′-chloro[1,1′-biphenyl]-4-yl)sulfonyl]-N-hydroxy-4-piperidinecarboxamide, Monohydrochloride]					2.1	1800	1.5	40
Cc1ccc(Oc2ccc(S(=O)(=O)C3(C(=O)NO)CCOCC3)cc2)cc1C [Example 96, 4-[[4-(3,4-dimethyl-phenoxy)phenyl]ssulfonyl]tetrahydro-N-hydroxy-2H-pyran-4-carboxamide]					0.3	5000	0.2	1.3
O=C(O)CCc1ccc(Oc2ccc(S(=O)(=O)C3(C(=O)NO)CCOCC3)cc2)cc1 [Example 105, 4-[4-[[tetrahydro-4-[(hydroxyamino)carbonyl]-2H-pyran-4-yl]sulfonyl]phenoxy]benzenepropanoic Acid]					0.85	> 10000	3500	114
O=C(NO)C1(S(=O)(=O)c2ccc(Oc3ccccc3)cc2)CCS(=O)(=O)CC1 [Example 110]					0.5	2700	0.4	10
O=C(NO)C1(S(=O)(=O)c2ccc(Sc3ccc(O)cc3)cc2)CCSCC1 [Example 114]					0.4	3000	0.65	31.6
NCCc1ccc(Oc2ccc(S(=O)(=O)C3(C(=O)NO)CCSCC3)cc2)cc1 [Example 116, tetrahydro-N-hydroxy-4-[[4-[4-tyramine)phenoxy]phenyl] Sulfonyl 2H-thiopyran-4-carboxamide]					5.5	2350	2	15.3
O=C(NO)C1(S(=O)(=O)c2ccc(Sc3ccncc3)cc2)CCSCC1 [Example 119, tetrahydro-N-hydroxy-4-[[4-(4-pyridinylthio)-phenyl]sulfonyl]-2H-thiopyran-4-carboxamide, Monohydrochloride]					1.7	> 10000	1.5	30
